Experimental data as given in ChEMBL document CHEMBL1135449, “A novel series of hybrid compounds derived by combining 2-aminotetralin and piperazine fragments: binding activity at D2 and D3 receptors” (Bioorg Med Chem Lett, 2002).
pKi: −log10 of the molar value.

Tests used:
[1] = target: D(3) dopamine receptor (Homo sapiens, UniProt P35462); assay: Tested for the binding constant against cloned human Dopamine receptor D3 in HEK cells by displacing [3H]spiperone; format: cell-based, HEK293
[2] = target: D(2) dopamine receptor (Homo sapiens, UniProt P14416); assay: Tested for the binding constant against cloned human Dopamine receptor D2L in HEK cells by displacing [3H]spiperone; format: cell-based, HEK293
Sequence of D(2) dopamine receptor (P14416 whole entry): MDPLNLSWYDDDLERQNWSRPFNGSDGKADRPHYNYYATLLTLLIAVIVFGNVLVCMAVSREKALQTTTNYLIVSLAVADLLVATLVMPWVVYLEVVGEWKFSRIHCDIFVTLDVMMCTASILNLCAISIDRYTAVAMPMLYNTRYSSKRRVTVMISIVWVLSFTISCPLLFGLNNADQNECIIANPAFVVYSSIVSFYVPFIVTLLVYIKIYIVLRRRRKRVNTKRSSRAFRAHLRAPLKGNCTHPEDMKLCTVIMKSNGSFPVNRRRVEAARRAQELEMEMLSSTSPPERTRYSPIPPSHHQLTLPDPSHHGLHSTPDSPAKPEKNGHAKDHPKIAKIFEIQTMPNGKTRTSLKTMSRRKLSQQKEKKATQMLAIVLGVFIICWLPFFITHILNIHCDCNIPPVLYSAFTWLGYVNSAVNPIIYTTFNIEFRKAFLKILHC

Sequence of D(3) dopamine receptor (P35462 whole entry): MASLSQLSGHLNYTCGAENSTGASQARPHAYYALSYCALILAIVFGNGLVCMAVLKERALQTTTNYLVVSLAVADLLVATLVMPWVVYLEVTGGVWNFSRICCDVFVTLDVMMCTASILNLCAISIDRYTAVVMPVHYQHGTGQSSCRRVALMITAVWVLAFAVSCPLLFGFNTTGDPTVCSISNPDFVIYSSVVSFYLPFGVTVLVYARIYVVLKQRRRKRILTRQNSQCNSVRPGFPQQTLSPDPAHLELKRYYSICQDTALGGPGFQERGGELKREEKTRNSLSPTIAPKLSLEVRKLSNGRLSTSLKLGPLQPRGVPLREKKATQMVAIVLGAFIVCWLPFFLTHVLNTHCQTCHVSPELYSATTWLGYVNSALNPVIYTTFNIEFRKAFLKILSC

| pKi [1] | pKi [2] | Compound |
| --- | --- | --- |
| 7.25 | 6.45 | O=C(NCCN(CCCN1CCN(c2ccccc2)CC1)C1CCc2ccc(O)cc2C1)c1ccccc1 (stereo not drawn) |
| 8.95 | 7.56 | CCCN(CCN1CCN(c2cccc(Cl)c2Cl)CC1)C1CCc2ccc(O)cc2C1 (stereo not drawn) |
| 7.30 | 6.21 | N#CCCCN(CCCN1CCN(c2ccccc2)CC1)C1CCc2ccc(O)cc2C1 (stereo not drawn) |
| 6.12 | 6.11 | O=C(NCCCCN(CCCN1CCN(c2ccccc2)CC1)C1CCc2ccc(O)cc2C1)c1ccccc1 (stereo not drawn) |
